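96-well plates; 48 h exposure; 5 concentrations. Endpoints by linear interpolation between flanking doses. Not reached: highest tested concentration assigned. TGI: total growth inhibition.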
Assays:
Assay in all cases: NCI-60 cell line screen, 48 h
M14 melanoma = tested on: M14 melanoma
UACC-62 melanoma = tested on: UACC-62 melanoma
DU-145 prostate = tested on: DU-145 prostate
HOP-62 NSCLC = tested on: HOP-62 NSCLC
HS 578T breast = tested on: HS 578T breast
LOX IMVI melanoma = tested on: LOX IMVI melanoma
CCRF-CEM leukemia = tested on: CCRF-CEM leukemia
HOP-92 NSCLC = tested on: HOP-92 NSCLC
OVCAR-8 ovarian = tested on: OVCAR-8 ovarian
NCI/ADR-RES ovarian = tested on: NCI/ADR-RES ovarian
EKVX NSCLC = tested on: EKVX NSCLC
SK-OV-3 ovarian = tested on: SK-OV-3 ovarian
A498 renal = tested on: A498 renal
T-47D breast = tested on: T-47D breast
NCI-H522 lung = tested on: NCI-H522 lung
SW-620 colon = tested on: SW-620 colon
KM12 colon = tested on: KM12 colon
OVCAR-3 ovarian = tested on: OVCAR-3 ovarian
SK-MEL-5 melanoma = tested on: SK-MEL-5 melanoma
HT29 colon = tested on: HT29 colon
NCI-H23 lung = tested on: NCI-H23 lung
ACHN renal = tested on: ACHN renal
K-562 leukemia = tested on: K-562 leukemia
MDA-N = tested on: MDA-N
PC-3 prostate = tested on: PC-3 prostate
RPMI-8226 leukemia = tested on: RPMI-8226 leukemia
COLO 205 colon = tested on: COLO 205 colon
OVCAR-5 ovarian = tested on: OVCAR-5 ovarian
NCI-H226 lung = tested on: NCI-H226 lung
MDA-MB-231 breast = tested on: MDA-MB-231 breast
786-0 renal = tested on: 786-0 renal
SNB-19 CNS = tested on: SNB-19 CNS
HL-60(TB) leukemia = tested on: HL-60(TB) leukemia
U251 CNS = tested on: U251 CNS
CAKI-1 renal = tested on: CAKI-1 renal
MDA-MB-435 = tested on: MDA-MB-435
OVCAR-4 ovarian = tested on: OVCAR-4 ovarian
NCI-H460 lung = tested on: NCI-H460 lung
SK-MEL-28 melanoma = tested on: SK-MEL-28 melanoma
SF-295 CNS = tested on: SF-295 CNS
A549 NSCLC = tested on: A549 NSCLC
TK-10 renal = tested on: TK-10 renal
UO-31 renal = tested on: UO-31 renal
IGROV1 ovarian = tested on: IGROV1 ovarian
SN12C renal = tested on: SN12C renal
MOLT-4 leukemia = tested on: MOLT-4 leukemia
RXF 393 renal = tested on: RXF 393 renal
SF-539 CNS = tested on: SF-539 CNS
UACC-257 melanoma = tested on: UACC-257 melanoma
BT-549 breast = tested on: BT-549 breast
SK-MEL-2 melanoma = tested on: SK-MEL-2 melanoma
SF-268 CNS = tested on: SF-268 CNS
MCF7 breast = tested on: MCF7 breast
MALME-3M melanoma = tested on: MALME-3M melanoma
SNB-75 CNS = tested on: SNB-75 CNS
HCT-116 colon = tested on: HCT-116 colon
HCT-15 colon = tested on: HCT-15 colon
SR leukemia = tested on: SR leukemia

SMILES: COc1cccc2cc(C(=O)Nc3ccccc3)c(=N)oc12
- TGI (M14 melanoma): > 100 µM
- TGI (UACC-62 melanoma): > 100 µM
- TGI (DU-145 prostate): > 100 µM
- TGI (HOP-62 NSCLC): > 100 µM
- TGI (HS 578T breast): > 84.7 µM
- TGI (LOX IMVI melanoma): > 100 µM
- TGI (CCRF-CEM leukemia): > 100 µM
- TGI (HOP-92 NSCLC): > 100 µM
- TGI (OVCAR-8 ovarian): > 100 µM
- TGI (NCI/ADR-RES ovarian): > 100 µM
- TGI (EKVX NSCLC): > 100 µM
- TGI (SK-OV-3 ovarian): > 100 µM
- TGI (A498 renal): > 100 µM
- TGI (T-47D breast): > 31.4 µM
- TGI (NCI-H522 lung): > 100 µM
- TGI (SW-620 colon): > 100 µM
- TGI (KM12 colon): > 100 µM
- TGI (OVCAR-3 ovarian): > 100 µM
- TGI (SK-MEL-5 melanoma): > 100 µM
- TGI (HT29 colon): > 100 µM
- TGI (NCI-H23 lung): > 100 µM
- TGI (ACHN renal): > 100 µM
- TGI (K-562 leukemia): > 100 µM
- TGI (MDA-N): > 100 µM
- TGI (PC-3 prostate): > 100 µM
- TGI (RPMI-8226 leukemia): > 100 µM
- TGI (COLO 205 colon): > 100 µM
- TGI (OVCAR-5 ovarian): > 100 µM
- TGI (NCI-H226 lung): > 100 µM
- TGI (MDA-MB-231 breast): > 100 µM
- TGI (786-0 renal): > 100 µM
- TGI (SNB-19 CNS): > 100 µM
- TGI (HL-60(TB) leukemia): > 100 µM
- TGI (U251 CNS): > 100 µM
- TGI (CAKI-1 renal): > 100 µM
- TGI (MDA-MB-435): > 100 µM
- TGI (OVCAR-4 ovarian): > 100 µM
- TGI (NCI-H460 lung): > 100 µM
- TGI (SK-MEL-28 melanoma): > 100 µM
- TGI (SF-295 CNS): > 100 µM
- TGI (A549 NSCLC): > 100 µM
- TGI (TK-10 renal): > 100 µM
- TGI (UO-31 renal): > 100 µM
- TGI (IGROV1 ovarian): > 100 µM
- TGI (SN12C renal): > 100 µM
- TGI (MOLT-4 leukemia): > 100 µM
- TGI (RXF 393 renal): > 100 µM
- TGI (SF-539 CNS): > 100 µM
- TGI (UACC-257 melanoma): > 100 µM
- TGI (BT-549 breast): > 100 µM
- TGI (SK-MEL-2 melanoma): > 100 µM
- TGI (SF-268 CNS): > 100 µM
- TGI (MCF7 breast): > 100 µM
- TGI (MALME-3M melanoma): > 100 µM
- TGI (SNB-75 CNS): > 87.9 µM
- TGI (HCT-116 colon): > 100 µM
- TGI (HCT-15 colon): > 100 µM
- TGI (SR leukemia): > 100 µM

SMILES: CC(=O)NC(CSC1=C2NC(=O)\C=C/C=C/C=C\C(C)C(O)CC(=O)/C(C)=C\CC(O)/C=C/C(C)C(O)C(C)C=C(C)C(=O)c3c(O)c(C)cc(c3C1=O)C2=O)C(=O)O (stereo not drawn)
- TGI (M14 melanoma): > 100 µM
- TGI (UACC-62 melanoma): > 100 µM
- TGI (DU-145 prostate): > 100 µM
- TGI (HOP-62 NSCLC): > 100 µM
- TGI (HS 578T breast): > 100 µM
- TGI (LOX IMVI melanoma): > 100 µM
- TGI (CCRF-CEM leukemia): 78.9 µM
- TGI (HOP-92 NSCLC): > 100 µM
- TGI (OVCAR-8 ovarian): > 100 µM
- TGI (NCI/ADR-RES ovarian): > 100 µM
- TGI (EKVX NSCLC): > 100 µM
- TGI (SK-OV-3 ovarian): > 100 µM
- TGI (A498 renal): > 100 µM
- TGI (T-47D breast): > 100 µM
- TGI (NCI-H522 lung): 71.8 µM
- TGI (SW-620 colon): > 100 µM
- TGI (KM12 colon): > 100 µM
- TGI (OVCAR-3 ovarian): > 100 µM
- TGI (SK-MEL-5 melanoma): > 100 µM
- TGI (HT29 colon): > 100 µM
- TGI (NCI-H23 lung): > 100 µM
- TGI (ACHN renal): > 100 µM
- TGI (K-562 leukemia): > 100 µM
- TGI (MDA-N): > 100 µM
- TGI (PC-3 prostate): > 100 µM
- TGI (COLO 205 colon): 79.6 µM
- TGI (OVCAR-5 ovarian): > 100 µM
- TGI (NCI-H226 lung): > 100 µM
- TGI (MDA-MB-231 breast): 82.7 µM
- TGI (786-0 renal): > 100 µM
- TGI (SNB-19 CNS): > 100 µM
- TGI (HL-60(TB) leukemia): 73.2 µM
- TGI (U251 CNS): > 100 µM
- TGI (CAKI-1 renal): > 100 µM
- TGI (MDA-MB-435): > 100 µM
- TGI (OVCAR-4 ovarian): > 100 µM
- TGI (NCI-H460 lung): > 100 µM
- TGI (SK-MEL-28 melanoma): > 100 µM
- TGI (SF-295 CNS): > 100 µM
- TGI (A549 NSCLC): > 100 µM
- TGI (TK-10 renal): > 100 µM
- TGI (UO-31 renal): > 100 µM
- TGI (IGROV1 ovarian): > 100 µM
- TGI (SN12C renal): > 100 µM
- TGI (MOLT-4 leukemia): > 100 µM
- TGI (SF-539 CNS): > 100 µM
- TGI (UACC-257 melanoma): > 100 µM
- TGI (BT-549 breast): > 100 µM
- TGI (SK-MEL-2 melanoma): > 100 µM
- TGI (MCF7 breast): > 100 µM
- TGI (MALME-3M melanoma): > 100 µM
- TGI (SNB-75 CNS): > 100 µM
- TGI (HCT-116 colon): > 100 µM
- TGI (HCT-15 colon): > 100 µM
- TGI (SR leukemia): > 100 µM
